The source of these data is article PMC11679574, “Intestinal Cells-on-Chip for Permeability Studies” (Micromachines, 2024).

Where two headings read alike, the source gives them in different places.

The subject of data set [1] is glucuronosyltransferases (UGTs). Briefly: Phase II metabolism of 7-hydroxycoumarin in enteroid monolayers, chip system. In kind it is in vitro ADME, human. The settings on record: enteroids, 12 µM. As to the method:
To add the culture disc with cells into the system, it was transferred to a biosafety cabinet, the chips were opened from the top and the discs were added to the chip, after which they were closed using a twisting cap mechanism. Sufficient medium was added to the chip to ensure no air bubbles were trapped during this procedure. Flow speed was adjusted to 17 µL/min and the system was placed back into a cell culture incubator (37 °C, 5% CO2). After a short period of equilibration, transport medium (with/without compound of interest) was added to apical and basolateral reservoirs, with the basolateral medium containing 4% BSA. The medium volumes in the reservoirs depended on the duration of the experiment and the sample volumes required but were between 5 and 6.5 mL. To completely replace the medium inside the tubing and chip with fresh transport medium, the system was run without medium recirculation for 30 min prior to the start of measurements. Details on the permeability measurements are described below. […]
(§1) For quantification, a standard of parental compounds and metabolites was prepared in the same medium as samples. […] A limit of quantification (LOQ) was determined for each compound based on the standard curve and a limit of detection (LOD) was determined based on a noise signal. […] Recovery was calculated as the percentage of original dose added to the system.

Data set [2] shares this test system. Briefly: Phase II metabolism of 7-hydroxycoumarin in enteroid monolayers, static Transwell. In kind it is in vitro ADME, human. The settings on record: enteroids, 12 µM. As for the experimental part: (§2) For specific inhibition, 5 µM elacridar and 5 µM ketoconazole (both Sigma-Aldrich, Zwijndrecht, The Netherlands) were used. The drug cocktail was added to the apical medium reservoirs of chip experiments (flow) and the apical insert of static Transwell inserts. Inhibitors were added to both apical dose solution and basolateral transport buffer. During experiments, samples were collected at different timepoints from both apical and basolateral medium reservoirs, mixed with equal volume of ultrapure MeOH and stored at −20 °C until analysis by LC-MS/MS.
(§3) For quantification, a standard of parental compounds and metabolites was prepared in the same medium as samples. Metabolites included were 1’-hydroxymidazolam (Sigma-Aldrich) and 7-hydroxycoumarin glucuronide (LGC Standards, OLY, UK). Both standard and samples were centrifuged for 10 min at 1500× g to precipitate protein, and subsequently, 1 µL was injected. […] A limit of quantification (LOQ) was determined for each compound based on the standard curve and a limit of detection (LOD) was determined based on a noise signal. For each experiment, corresponding dose and blanks were included in measurements. Recovery was calculated as the percentage of original dose added to the system.
(§4) All static control experiments were performed in cell monolayers cultured on transparent Transwell inserts (Corning, Life Sciences BV, Amsterdam, The Netherlands). […]

The conditions of data set [3]: no reference given; cited from earlier work.
Data set [4] in a line: Permeability in cell-on-chip system under laminar flow, enteroid monolayers. The note with it: human. As for the experimental part: (§5) To add the culture disc with cells into the system, it was transferred to a biosafety cabinet, the chips were opened from the top and the discs were added to the chip, after which they were closed using a twisting cap mechanism. Sufficient medium was added to the chip to ensure no air bubbles were trapped during this procedure. Flow speed was adjusted to 17 µL/min and the system was placed back into a cell culture incubator (37 °C, 5% CO2). After a short period of equilibration, transport medium (with/without compound of interest) was added to apical and basolateral reservoirs, with the basolateral medium containing 4% BSA. The medium volumes in the reservoirs depended on the duration of the experiment and the sample volumes required but were between 5 and 6.5 mL. To completely replace the medium inside the tubing and chip with fresh transport medium, the system was run without medium recirculation for 30 min prior to the start of measurements. Details on the permeability measurements are described below.
(§6) Leakage to the basolateral medium was determined using the BioTek Synergy H1 microplate reader (BioSPX, Abcoude, The Netherlands). […] Apparent permeability values (Papp) were calculated according to Equation (1):(1) Papp=dQ/dt×(1/A×C0) in which dQ/dt is the amount of drug transported over the barrier (ng/sec), A is the exposed area of the cell monolayer (cm^2) and C0 is the initial dose concentration of the compound (ng/mL). All measurements were performed under flow (17 µL/min), and the chip system was inside a cell culture incubator (37 °C, 5%CO2) during the entire experiment, as described in Section 2.6.
(§7) Apical and basolateral medium reservoirs were sampled at t = 0, 1, 2 and 4 h. All measurements were performed under flow (17 µL/min), and the chip system was inside a cell culture incubator (37 °C, 5% CO2) during the entire experiment, as described in Section 2.6.
as §2, §1

The nature of another data set: in vitro. The settings on record: human. As for the experimental part:
as §6, §7, §2, §3
(§8) All static control experiments were performed in cell monolayers cultured on transparent Transwell inserts (Corning, Life Sciences BV, Amsterdam, The Netherlands). Procedures for seeding and culturing were exactly the same as previously reported. […] The only difference was in the volume of apical (100 µL) and basolateral (600 µL) compartment, which was accounted for in Papp calculations. All measurements were performed inside a cell culture incubator (37 °C, 5% CO2).

The nature of data set [5]: Compound recovery, cell-on-chip system. In kind it is in vitro ADME. The settings on record: human, read-out: Recovery, percentage of original dose.
The target in a further data set is CYP3A4 (Homo sapiens, UniProt P08684). Briefly: Phase I metabolism of midazolam in enteroid monolayers, static Transwell. The note with it: enteroids, static Transwell cultures. As to the method:
as §2, §3, §4

For data set [6], the system named is enteroid monolayers. As to the kind of experiment: Permeability in cell-on-chip system under laminar flow, enteroid monolayers. As to the method:
as §5, §6, §7, §2, §1

For data set [7], the system named is enteroid monolayers. Briefly: in vitro. As for the experimental part:
as §6, §7, §2, §3, §8

Another data set relates to Caco-2 monolayers. Briefly: Permeability in static Transwell inserts, Caco-2 monolayers. In kind it is in vitro ADME, human. The settings on record: static culture, intact Caco-2 monolayer. (Passage across Caco-2 layers is used to estimate intestinal permeability.)

Chain of CYP3A4 (P08684 whole entry): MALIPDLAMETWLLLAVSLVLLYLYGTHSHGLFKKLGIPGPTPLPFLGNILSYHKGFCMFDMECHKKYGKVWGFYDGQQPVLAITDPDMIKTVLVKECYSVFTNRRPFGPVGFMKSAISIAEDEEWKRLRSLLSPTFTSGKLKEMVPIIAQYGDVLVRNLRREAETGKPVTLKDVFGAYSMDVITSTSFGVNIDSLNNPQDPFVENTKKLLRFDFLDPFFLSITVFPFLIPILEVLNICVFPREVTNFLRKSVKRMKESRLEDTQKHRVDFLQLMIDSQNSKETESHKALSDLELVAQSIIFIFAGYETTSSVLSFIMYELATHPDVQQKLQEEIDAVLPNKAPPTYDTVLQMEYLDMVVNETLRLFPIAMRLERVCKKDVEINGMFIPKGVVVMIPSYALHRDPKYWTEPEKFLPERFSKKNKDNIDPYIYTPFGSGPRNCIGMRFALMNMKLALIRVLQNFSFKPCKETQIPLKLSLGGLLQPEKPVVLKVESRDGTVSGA
Procedure for Caco-2 monolayers: Leakage to the basolateral medium was determined using the BioTek Synergy H1 microplate reader (BioSPX, Abcoude, The Netherlands). FD4 was measured with an excitation/emission wavelength of 485 nm and 528 nm, and CB was measured at 365 nm and 412 nm, respectively. Apparent permeability values (Papp) were calculated according to Equation (1):(1) Papp=dQ/dt×(1/A×C0) in which dQ/dt is the amount of drug transported over the barrier (ng/sec), A is the exposed area of the cell monolayer (cm^2) and C0 is the initial dose concentration of the compound (ng/mL).
All static control experiments were performed in cell monolayers cultured on transparent Transwell inserts (Corning, Life Sciences BV, Amsterdam, The Netherlands). […] The only difference was in the volume of apical (100 µL) and basolateral (600 µL) compartment, which was accounted for in Papp calculations. All measurements were performed inside a cell culture incubator (37 °C, 5% CO2).

Consider `O=c1ccc2ccc(O)cc2o1` [7OH-coumarin, 7-hydroxycoumarin], for which the 7-hydroxycoumarin glucuronide formation result in data set [1] and in data set [2] was “confirm UGT activity” each time.
Consider `Cc1cc(=O)n(-c2ccccc2)n1C` [Antipyrine, antipyrine], for which the “fraction absorbed (Fa)” value in data set [3] was 100%.
Consider `CC(C)NCC(O)COc1ccc(CC(N)=O)cc1` (stereo not drawn) [Atenolol, atenolol], for which the “fraction absorbed (Fa)” value in data set [3] is 50%.
The term Papp A→B denotes the apparent permeability from the apical to the basolateral side of a cell layer. In the case of `CN(C)C(=N)N=C(N)N` [Metformin, metformin], the Papp A→B in data set [4] came out at 4.6 ×10⁻⁶ cm/s; in the data set “in vitro”, 1.44 ×10⁻⁶ cm/s.
Turning to `Cc1ncc2n1-c1ccc(Cl)cc1C(c1ccccc1F)=NC2` [Midazolam, midazolam], the recovery at 10 µM turned out to be 41% in data set [5] (chips containing translucent membranes) and 11% in [5] (chips with transparent membranes). Moreover, the OH-midazolam formation entry was “absent” on CYP3A4 (in the presence of ketoconazole 5 µM) and “increase in OH-midazolam over time” on CYP3A4 (midazolam 10 µM).
Take `CC(C)c1nc(N(C)S(C)(=O)=O)nc(-c2ccc(F)cc2)c1/C=C/[C@@H](O)C[C@@H](O)CC(=O)O` [Rosuvastatin, rosuvastatin]: the Papp A→B in data set [4] was 1.11 ×10⁻⁶ cm/s; in the data set “in vitro”, 0.7 ×10⁻⁶ cm/s. In addition, the “Papp (in words)” value in the data set with enteroid monolayers [6] (enteroids, chip experiments, drug cocktail, 10 µM) is on record as “low”; in the data set on enteroid monolayers [7], “low”.
As for Cascade Blue [CB], the “Overall permeation compared to FD4” value in the data set on enteroid monolayers [6] (chip system, overall over cell types and membranes) is “approximately 2 fold”. In addition, the Papp in the data set on enteroid monolayers [7] (static culture, intact enteroid monolayer) is listed as 0.08 ·10^−6 cm/s; in the data set with Caco-2 monolayers it was 0.5 ·10^−6 cm/s.
With Dextran-FITC 4 kDa [FD4], the “Papp A to B, Static” value in the data set with enteroid monolayers [7] amounted to 0.01 ×10⁻⁶ cm/s.
